The record followed here is US8242159B2, “1,3-dihydro-5-isobenzofurancarbonitrile derivatives and pharmaceutical composition thereof for the treatment of premature ejaculation” (Dong-A Pharmaceutical. Co., Ltd, priority 2007, dated 2012).

The subject of the assay is Male Wistar rats. Nature of the assay: p-PCA-induced ejaculation in anesthetized rats (ejaculation-delaying effect). It is filed as in vivo, rat. The note with it: for Ratio: Number of responding animals/total animal number: 50 mg/kg oral in 1% HPMC, p-PCA 5 mg/kg i.p. 80 min later, observed 30 min; for Latency: Time to display the ejaculatory response: 50 mg/kg oral, p-PCA 5 mg/kg i.p., mean ± standard deviation of responding rats. As to the method:
The compounds prepared in the above examples were evaluated to determine whether they have an effect of delaying ejaculation. The evaluation was carried out using an animal model according to a method described in Yonezawa et al., Life Sci. 2000, 67(25) p 3031-9. Male Wistar rats weighing 240-260 g were used. Each compound was suspended in 1% HPMC, and then administered orally to each animal. After 60 min, the animals were anesthetized and fixed. 20 min later, para-chloroamphetamine (p-PCA) was intraperitoneally administered in a dose of 5 mg/kg in order to induce ejaculation. […] An ejaculatory response was considered to be elicited when rhythmic contraction of bulbocavernosus muscles and semen discharge occurs. Six or more animals were used for each compound. A Fisher's […] test was performed for the comparison of the proportion of responding rats (ejaculated rats) to determine significance of difference between a treatment group and a vehicle control. The time to reach ejaculation was expressed as mean±standard deviation.
Each test compound was administered at a dose of 50 mg/kg. Ejaculation was elicited in all seven animals of a control group.

In the case of `Cl.N#Cc1ccc2c(c1)COC2(CCCn1cccn1)c1ccc(F)cc1` (stereo not drawn) [Ex. 58, 1-(4-fluorophenyl)-1-{3-(pyrazole-1-yl)propyl}-1,3-dihydro-5-isobenzofurancarbonitrile hydrochloride], the “Ratio: Number of responding animals/total animal number” value is 4/9 and the “Latency: Time to display the ejaculatory response” value (“Latency: Time” below) turned out to be 850 ± 362 s.

As for `Cc1ccc(C2(CCCn3cccn3)OCc3cc(C#N)ccc32)cc1.Cl` (stereo not drawn) [Ex. 31, 1-{3-(pyrazole-1-yl)propyl}-1-(4-tolyl)-1,3-dihydro-5-isobenzofurancarbonitrile hydrochloride], the “Ratio: Number of responding animals/total animal number” value is 3/9 and the “Latency: Time” value was found to be 754 ± 401 s.

As for `N#Cc1ccc2c(c1)COC2(CCCn1ccnc1)c1ccc(F)cc1` (stereo not drawn) [Ex. 53, 1-(4-fluorophenyl)-1-{3-(imidazole-1-yl)propyl}-1,3-dihydro-5-isobenzofurancarbonitrile], the “Ratio: Number of responding animals/total animal number” value was 4/9 and the “Latency: Time” value stood at 1054 ± 320 s.

On to `N#Cc1ccc2c(c1)COC2(CCCn1ccnc1)c1cccs1` (stereo not drawn) [Ex. 44, 1-{3-(imidazole-1-yl)propyl}-1-(2-thienyl)-1,3-dihydro-5-isobenzofurancarbonitrile], for which the “Ratio: Number of responding animals/total animal number” value is 4/7 and the “Latency: Time” value stood at 904 ± 350 s.

In the case of `Cl.N#Cc1ccc2c(c1)COC2(CCn1ccnc1)c1ccccc1` (stereo not drawn) [Ex. 19, 1-{2-(imidazole-1-yl)ethyl}-1-phenyl-1,3-dihydro-5-isobenzofurancarbonitrile hydrochloride], the “Ratio: Number of responding animals/total animal number” value is given as 5/9 and the “Latency: Time” value came out at 954 ± 275 s.

With `Cc1ccc(C2(CCCN(C)C)OCc3cc(C#N)ccc32)cc1` (stereo not drawn) [Ex. 22, 1-{3-(dimethylamino)propyl}-1-(4-tolyl)-1,3-dihydro-5-isobenzofurancarbonitrile], the “Ratio: Number of responding animals/total animal number” value is 3/7 and the “Latency: Time” value was 830 ± 287 s.

On to `Cl.N#Cc1ccc2c(c1)COC2(CCn1cccn1)c1ccccc1` (stereo not drawn) [Ex. 21, 1-phenyl-1-{2-(pyrazole-1-yl)ethyl}-1,3-dihydro-5-isobenzofurancarbonitrile hydrochloride], for which the “Ratio: Number of responding animals/total animal number” value is reported as 4/7 and the “Latency: Time” value came out at 799 ± 387 s.

Turning to `Cl.N#Cc1ccc2c(c1)COC2(CCCn1ccnc1)c1ccccc1` (stereo not drawn) [Ex. 17, 1-{3-(imidazole-1-yl)propyl}-1-phenyl-1,3-dihydro-5-isobenzofurancarbonitrile hydrochloride], the “Ratio: Number of responding animals/total animal number” value was 3/6 and the “Latency: Time” value turned out to be 949 ± 330 s.

For the molecule `CN(C)c1ccc(C2(CCCn3ccnc3)OCc3cc(C#N)ccc32)cc1` (stereo not drawn) [Ex. 37, 1-(4-dimethylaminophenyl)-1-{3-(imidazole-1-yl)propyl}-1,3-dihydro-5-isobenzofurancarbonitrile], the “Ratio: Number of responding animals/total animal number” value is listed as 4/7 and the “Latency: Time” value is 950 ± 241 s.

In the case of `N#Cc1ccc2c(c1)COC2(CCn1cccn1)c1ccc(Cl)cc1` (stereo not drawn) [Ex. 67, 1-(4-chlorophenyl)-1-{2-(pyrazole-1-yl)ethyl}-1,3-dihydro-5-isobenzofurancarbonitrile], the “Ratio: Number of responding animals/total animal number” value is recorded as 3/7 and the “Latency: Time” value worked out at 853 ± 352 s.

Regarding `COc1ccc(C2(CCCN(C)C)OCc3cc(C#N)ccc32)cc1` (stereo not drawn) [Ex. 1, 1-(4-methoxyphenyl)-1-{3-(dimethylamino)propyl}-1,3-dihydro-5-isobenzofurancarbonitrile], the “Ratio: Number of responding animals/total animal number” value is listed as 5/9 and the “Latency: Time” value is 1024 ± 256 s.

Turning to `COc1ccc(C2(CCCn3ccnc3)OCc3cc(C#N)ccc32)cc1` (stereo not drawn) [Ex. 4, 1-{3-(imidazole-1-yl)propyl}-1-(4-methoxyphenyl)-1,3-dihydro-5-isobenzofurancarbonitrile], the “Ratio: Number of responding animals/total animal number” value was 4/9 and the “Latency: Time” value turned out to be 1300 ± 124 s.

Take `Cc1ccc(C2(CCn3cccn3)OCc3cc(C#N)ccc32)cc1.Cl` (stereo not drawn) [Ex. 33, 1-{2-(pyrazole-1-yl)ethyl}-1-(4-tolyl)-1,3-dihydro-5-isobenzofurancarbonitrile hydrochloride]: the “Ratio: Number of responding animals/total animal number” value is 3/7 and the “Latency: Time” value was determined as 698 ± 374 s.

With `N#Cc1ccc2c(c1)COC2(CCCn1ccnc1)c1ccc(Cl)cc1` (stereo not drawn) [Ex. 61, 1-(4-chlorophenyl)-1-{3-(imidazole-1-yl)propyl}-1,3-dihydro-5-isobenzofurancarbonitrile], the “Ratio: Number of responding animals/total animal number” value is 3/7 and the “Latency: Time” value stood at 930 ± 247 s.

For `N#Cc1ccc2c(c1)COC2(CCn1ccnc1)c1ccccc1` (stereo not drawn) [Ex. 18, 1-{2-(imidazole-1-yl)ethyl}-1-phenyl-1,3-dihydro-5-isobenzofurancarbonitrile], the “Ratio: Number of responding animals/total animal number” value is 3/7 and the “Latency: Time” value came to 691 ± 361 s.
